Test results reported in article PMC9926234, “Iterative computational design and crystallographic screening identifies potent inhibitors targeting the Nsp3 macrodomain of SARS-CoV-2” (Proceedings of the National Academy of Sciences of the …, 2023).
Where “and” joins values, the source holds several entries; their conditions need not be identical. Identical values can stand only once. Like-named read-outs stand apart in the source and are kept apart here.

How the values were obtained:
SARS-CoV-2 NSP3 Mac1 [1] = target: T1, SARS-CoV-2 NSP3 Mac1 (Severe acute respiratory syndrome coronavirus 2, UniProt P0DTD1); parameters: contains a conserved macrodomain enzyme (Mac1); differential scanning fluorimetry, maximum thermal upshift; details: binder
[2] = tested on: P-glycoprotein (human MDR1); assay: in vitro; details: dog
Method: Permeability of compounds was assessed using canine MDR1 knockout and human MDR1 knockin MDCKII cells (MDR1-MDCKII) (Sigma-Aldrich, MTOX1303) in confluent monolayers expressing P-glycoprotein (P-gp) at Enamine biological services Bienta LTD (Kyiv, Ukraine).
Canine MDR1 knockout, human MDR1 knockin MDCKII cell (MDR1-MDCKII) (Sigma-Aldrich,
MTOX1303) suspension (400 μl) was added to each well of high throughput screening multiwell
insert system plates. Test compounds were prepared as 20 mM DMSO stocks. The test compound
(300 µl) was dissolved in transport buffer (9.5 g/l Hanks’ balanced salt solution and 0.35 g/l NaHCO3
wells whereas 1000 µl of transport buffer was added to transport analysis plate wells in order to
determine apical (A) to basolateral (B) transport. Basolateral to apical transport was measured by
adding 1000 µl of the test compound solution into the transport analysis plate wells whereas 300
µl of buffer was used to fill the filter plate wells.
were taken from the donor and receiver compartments for LC-MS/MS analysis. Samples were
mixed with acetonitrile followed by protein sedimentation by centrifugation at 1000 rpm for 10 min.
HPLC coupled with tandem mass spectroscopy was performed using the Shimadzu Prominence
HPLC system coupled with the API 5000 (PE Sciex) spectrometer. Both the positive and negative
ion modes of the TurboIonSpray ion source were used. The apparent permeability (Papp) was
computed using the equation 1, where VA is the volume of transport buffer in acceptor wel, Area is
the surface area of the insert, Time is the assay time, [drug]acc is the peak area of test compound
in acceptor well, and [drug]initial,d is the initial amount of the test compound in a donor well.

MacroD2 = target: T2, MacroD2 (Homo sapiens, UniProt A1Z1Q3); assay: adapted HTRF-based peptide displacement assay (off-target); type: binding; details: for selectivity for viral Mac1 over human macrodomain: versus MacroD2, in words
T2 construct: MacroD2_HTRF; HTRF assay; pET22b(+); His6, TEV, Avi; made in house
T2 sequence (A1Z1Q3 with tags, fused parts or gaps): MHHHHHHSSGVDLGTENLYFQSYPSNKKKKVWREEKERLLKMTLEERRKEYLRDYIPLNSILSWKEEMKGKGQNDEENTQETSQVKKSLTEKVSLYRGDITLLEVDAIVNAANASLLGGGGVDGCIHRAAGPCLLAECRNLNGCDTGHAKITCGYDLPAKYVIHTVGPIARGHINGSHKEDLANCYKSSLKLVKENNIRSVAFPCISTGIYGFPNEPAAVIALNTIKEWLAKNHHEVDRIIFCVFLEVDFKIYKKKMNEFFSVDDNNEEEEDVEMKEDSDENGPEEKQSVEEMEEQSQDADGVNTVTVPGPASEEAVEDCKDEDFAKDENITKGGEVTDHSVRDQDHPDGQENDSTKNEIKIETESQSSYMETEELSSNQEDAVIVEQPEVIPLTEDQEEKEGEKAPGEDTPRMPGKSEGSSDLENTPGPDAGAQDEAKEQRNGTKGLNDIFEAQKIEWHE

TARG1 = target: T3, TARG1 (Homo sapiens, UniProt Q9Y530); assay: as above; type: binding; details: for selectivity for viral Mac1 over human macrodomain: versus TARG1, in words
T3 construct: Targ1_HTRF; HTRF assay; pET22b(+); His6, TEV; 1-153; made in house
T3 sequence (Q9Y530 with tags, fused parts or gaps): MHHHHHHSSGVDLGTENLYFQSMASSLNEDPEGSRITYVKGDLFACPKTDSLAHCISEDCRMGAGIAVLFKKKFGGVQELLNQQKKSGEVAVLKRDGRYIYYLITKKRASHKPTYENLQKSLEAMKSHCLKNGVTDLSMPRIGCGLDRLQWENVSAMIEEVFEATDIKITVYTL

SARS-CoV-2 NSP3 Mac1 [3] = target: T1, SARS-CoV-2 NSP3 Mac1; type: binding; details: for HIT*: true hit = binding in crystallographic soaking or the HTRF-based binding assay; for Refined occupancy: ligand occupancy after refinement (phenix.refine)
SARS-CoV-2 NSP3 Mac1 [4] = target: T1, SARS-CoV-2 NSP3 Mac1; assay: biochemical; type: binding; details: for Ki: read-out: Ki***
SARS-CoV-2 NSP3 Mac1 [5] = target: T1, SARS-CoV-2 NSP3 Mac1; type: binding; parameters: contains a conserved macrodomain enzyme (Mac1)
Summary of the method: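 Differential scanning fluorimetry using 5 µM Fluorescent Yellow dye in place of SYPRO Orange. Compounds run in triplicate at seven two-fold dilutions from 1,000 or 100 μM, with ΔTma taken against a DMSO control in the same plate region. Dose-response significance assessed by Spearman's coefficient between concentration and ΔTma.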

SARS-CoV-2 NSP3 Mac1 [6] = target: T1, SARS-CoV-2 NSP3 Mac1; assay: biochemical; parameters: HTRF ADPr-peptide displacement assay with Mac1, dose-response IC50; details: read-out: IC50 [µM] / 0.5, 1.2, 1.4
SARS-CoV-2 NSP3 Mac1 [7] = target: T1, SARS-CoV-2 NSP3 Mac1; parameters: contains a conserved macrodomain enzyme (Mac1); Differential scanning fluorimetry of Mac1, maximum thermal upshift; details: maximum shift over tested concentrations; binder
SARS-CoV-2 NSP3 Mac1 [8] = assay: Overall hit call (binding in crystallographic soaking or the HTRF-based binding assay)
From the text: Supplement pnas.2212931120.sd01.xlsx, sheet "Compound Summary" | column: HIT*

[9] = PanDDA event map background density correction, crystal soak, compound concentration 100 mM
[10] = PanDDA event map, 1 minus background density correction, crystal soaking of Mac1
[11] = PanDDA event map, crystal soak, Compound_concentration 100 mM, Echo_dispense_volume 40 nl
[12] = crystal soak, Compound_concentration 100 mM, Echo_dispense_volume 40 nl, PanDDA run (background map) dmso_34, nohits_35 or nohits_62
[13] = ligand modeled in the crystal structure, crystal soak, compound concentration 100 mM
[14] = Ki estimation from HTRF-derived IC50, Cheng-Prusoff, peptide 400nM, Kd 2.68µM

Q: Which “DSF max dTma” value (SARS-CoV-2 NSP3 Mac1 [1]) does the source give for `Nc1ncnc2c1ncn2Cc1cc(-c2ccco2)on1` [Z4827, ZINC000681764827] here?
A: The value was 0.63 degC.

Q: How did the Papp A→B at 90 min, 10 µM ([2]; MDCK-MDR1, pH 7.4) turn out when `O=C(Nc1ccc(C(=O)NC2c3cccc(O)c3CC2C(=O)O)cc1)NC1CC1` (stereo not drawn) [Z8539] was run?
A: The Papp A→B at 90 min, 10 µM was 1.1 ± 0.1 ×10⁻⁶ cm/s.

Q: What about the Papp B→A at 90 min, 10 µM ([2]; MDCK-MDR1, pH 7.4) of the same compound?
A: Its Papp B→A at 90 min, 10 µM is 0.5 ×10⁻⁶ cm/s.

Q: What about the Papp at 90 min, 10 µM ([2]; MDCK-MDR1, pH 7.4, cell permeability, MDCK cells, direction not given) of the same compound?
A: Its Papp at 90 min, 10 µM is 1.1 ×10⁻⁶ cm/s.

Q: What does the source list for `O=C(NC1c2cccc(O)c2CC1C(=O)O)c1ccc2[nH]c(CO)nc2c1` (stereo not drawn) [Z8539_0002]?
A: selectivity for viral Mac1 over human macrodomain (MacroD2): selective for viral Mac1; selectivity for viral Mac1 over human macrodomain (TARG1): selective for viral Mac1; Papp A→B ([2]; MDCK-MDR1, pH 7.4): 0.8 ± 0.2 ×10⁻⁶ cm/s; Papp B→A ([2]; MDCK-MDR1, pH 7.4): 1.4 ± 1 ×10⁻⁶ cm/s; 1-BDC (SARS-CoV-2 NSP3 Mac1 [3]; PanDDA 1-BDC value of the event, crystal soak, compound concentration 100 mM, per dataset): 0.26; 1-BDC (SARS-CoV-2 NSP3 Mac1 [3]; [9]): 0.19; 1-BDC (SARS-CoV-2 NSP3 Mac1 [3]; [10]): 0.29; 1-BDC (PanDDA) (SARS-CoV-2 NSP3 Mac1 [3]; [10]): 0.19; 1-BDC (SARS-CoV-2 NSP3 Mac1 [3]; [11]): 0.29; PanDDA hit? (SARS-CoV-2 NSP3 Mac1 [3]; [12]): TRUE; PanDDA hit? (SARS-CoV-2 NSP3 Mac1 [3]; crystal soak, compound concentration 100 mM, per dataset): TRUE; Modeled? (SARS-CoV-2 NSP3 Mac1 [3]; ligand modeled from this dataset, compound concentration 100 mM, Echo dispense volume 40 or 80 nl): TRUE; Modeled? (SARS-CoV-2 NSP3 Mac1 [3]; [13]): TRUE; HIT* (SARS-CoV-2 NSP3 Mac1 [3]): Y; IC50 (SARS-CoV-2 NSP3 Mac1 [4]; HTRF ADPr-peptide displacement from SARS-CoV-2 Mac1, read-out: IC50): 1300 to 6700 nM; IC50 (SARS-CoV-2 NSP3 Mac1 [4]; HTRF, read-out: IC50): 1300 nM and 6700 nM; Ki (SARS-CoV-2 NSP3 Mac1 [4]; [14]): 1100 nM and 5800 nM; Spearman est (compound concentration vs apparent Tm) (SARS-CoV-2 NSP3 Mac1 [5]; DSF dose responsiveness, 1 µM nsp3 mac1, adj p given): 0.74; DSF max dTma (SARS-CoV-2 NSP3 Mac1 [5]; maximal thermal upshift): 5.39 ˚C

Q: Which IC50 (SARS-CoV-2 NSP3 Mac1 [6]) does the source give for `O=C(NC1c2cccc(O)c2CC1C(=O)O)c1cnc(NC2CCOCC2)cn1` (stereo not drawn) [Z8539_0007, 8539_0007] here?
A: Its IC50 is 6.4 µM.

Q: What about the “DSF max dTma” value (SARS-CoV-2 NSP3 Mac1 [7]) of the same compound?
A: Its value is 3.42 °C.

Q: For `O=C(NC1c2cccc(O)c2CC1C(=O)O)c1ccc(NCC2CC2)nc1` (stereo not drawn) [Z8539_0009, 8539_0009], which IC50 (SARS-CoV-2 NSP3 Mac1 [6]) is on record?
A: The IC50 was 17.1 µM.

Q: And the “DSF max dTma” value (SARS-CoV-2 NSP3 Mac1 [7])?
A: Its value is 2.03 °C.

Q: Which “displacement of the ADPr-conjugated peptide (off-target activity)” value (“displacement” below) (MacroD2; compound at 50 µM) does the source give for `O=C(Nc1ccc(C(=O)NC2c3cccc(O)c3CC2C(=O)O)c(O)c1)NC1CC1` (stereo not drawn) [Z8539_0072] here?
A: The value was “did not show any off-target activity”.

Q: What about the “displacement” value (MacroD2; compound at 1 mM) of the same compound?
A: Its value is “did not show any off-target activity”.

Q: And the “displacement” value (TARG1; compound at 50 µM)?
A: Its value is “did not show any off-target activity”.

Q: What about the “displacement” value (TARG1; compound at 1 mM) of the same compound?
A: Its value is “did not show any off-target activity”.

Q: And the 1-BDC (SARS-CoV-2 NSP3 Mac1 [3]; PanDDA event map 1-BDC, crystal soak, Compound_concentration 100 mM, PanDDA run dmso_34 or nohits_35 per dataset)?
A: Its 1-BDC is 0.24.

Q: And the “1-BDC (PanDDA)” value (SARS-CoV-2 NSP3 Mac1 [3]; [10])?
A: The value was 0.24.

Q: What about the “PanDDA hit?” value (SARS-CoV-2 NSP3 Mac1 [3]; crystal soak, Compound_concentration 100 mM, Echo dispense 40 nl, PanDDA run dmso_34 or nohits_35 per dataset) of the same compound?
A: The value was “TRUE”.

Q: And the “Modeled?” value (SARS-CoV-2 NSP3 Mac1 [3]; ligand modeled in this dataset, crystal soak, Compound_concentration 100 mM)?
A: Its value is “TRUE”.

Q: What about the Refined occupancy (SARS-CoV-2 NSP3 Mac1 [3]; crystal soaking of Mac1) of the same compound?
A: Its Refined occupancy is 48.

Q: And the “HIT*” value (SARS-CoV-2 NSP3 Mac1 [3])?
A: The value was “Y”.

Q: What about the IC50 (SARS-CoV-2 NSP3 Mac1 [4]; HTRF, Mac1, read-out: affinity) of the same compound?
A: The IC50 was 430 nM.

Q: What about the IC50 (SARS-CoV-2 NSP3 Mac1 [4]; IC50, HTRF ADPr-peptide displacement from SARS-CoV-2 Mac1) of the same compound?
A: Its IC50 is 400 nM.

Q: What about the Ki (SARS-CoV-2 NSP3 Mac1 [4]; [14]) of the same compound?
A: The Ki was 300 nM.

Q: And the “improvement compared to the best starting fragment” value (SARS-CoV-2 NSP3 Mac1 [4]; affinity, HTRF)?
A: The value was over 400 fold.

Q: How did the “selectivity for viral Mac1 over human macrodomain” value (MacroD2) turn out when `O=C(NC1c2cccc(O)c2CC1C(=O)O)c1ccc2[nH]cnc2c1` (stereo not drawn) [Z8539_2001] was run?
A: Its value is “selective for viral Mac1”.

Q: What about the “selectivity for viral Mac1 over human macrodomain” value (TARG1) of the same compound?
A: Its value is “selective for viral Mac1”.

Q: What about the Papp A→B ([2]; MDCK-MDR1, pH 7.4) of the same compound?
A: The Papp A→B was 1.1 ± 0.1 ×10⁻⁶ cm/s.

Q: What about the Papp B→A ([2]; MDCK-MDR1, pH 7.4) of the same compound?
A: Its Papp B→A is 0.5 ×10⁻⁶ cm/s.

Q: What about the 1-BDC (SARS-CoV-2 NSP3 Mac1 [3]; [9]) of the same compound?
A: The 1-BDC was 0.23 and 0.42.

Q: And the “1-BDC (PanDDA)” value (SARS-CoV-2 NSP3 Mac1 [3]; [10])?
A: The value was 0.23.

Q: What about the 1-BDC (SARS-CoV-2 NSP3 Mac1 [3]; [11]) of the same compound?
A: The 1-BDC was 0.21.

Q: What about the “PanDDA hit?” value (SARS-CoV-2 NSP3 Mac1 [3]; [12]) of the same compound?
A: Its value is “TRUE”.

Q: And the “Modeled?” value (SARS-CoV-2 NSP3 Mac1 [3]; [13])?
A: Its value is “TRUE”.

Q: What about the Refined occupancy (SARS-CoV-2 NSP3 Mac1 [3]; crystal soaking of Mac1) of the same compound?
A: Its Refined occupancy is 46.

Q: What about the “binding to Mac1 in the HTRF assay, result in words” value (SARS-CoV-2 NSP3 Mac1 [4]) of the same compound?
A: Its value is “did not affect the binding affinity”.

Q: What about the IC50 (SARS-CoV-2 NSP3 Mac1 [4]; HTRF ADPr-conjugated peptide displacement, read-out: IC50) of the same compound?
A: Its IC50 is 5400 nM.

Q: And the Ki (SARS-CoV-2 NSP3 Mac1 [4])?
A: Its Ki is 4700 nM.

Q: And the “HIT*” value (SARS-CoV-2 NSP3 Mac1 [8])?
A: The value was “Y”.

Q: For `O=C(Nc1ccc(C(=O)N[C@H]2c3cccc(O)c3C[C@H]2C(=O)O)cc1)NC1CC1` [Z8601], which “displacement” value (MacroD2; compound at 50 µM) is on record?
A: Its value is “no displacement”.

Q: What about the “displacement” value (MacroD2; compound at 1 mM) of the same compound?
A: Its value is “approximately 50%”.

Q: What about the “displacement” value (TARG1; compound at 50 µM) of the same compound?
A: Its value is “no displacement”.

Q: And the “displacement” value (TARG1; compound at 1 mM)?
A: The value was “approximately 50%”.

Q: Which “DSF max dTma” value (SARS-CoV-2 NSP3 Mac1 [1]) does the source give for `Nc1ncnc(N2CCC(Oc3ccncc3)C2)c1Cl` (stereo not drawn) [Z9710, ZINC000302059710] here?
A: Its value is 0 degC.
